In patent US9409884B2 (Rigel Pharmaceuticals, Inc., priority 2012, dated 2016):

The compounds below were run against AMPK (assay: AMPK activation, enzyme-linked immunosorbent assay). Conditions: Table 8, compounds of Table 1.
Type: biochemical
In short: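 Read-out: ELISA, used to detect compound-driven activation of AMPK.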

Row | EC50 | Structure (SMILES)
1 | < 100 nM | Cc1c(C(=O)NC2CCN(Cc3ccc(C#N)cc3)CC2)oc2cc(OC3CCN(c4ccc(C(F)(F)F)cc4)CC3)ccc12 [Compound 1-64, N-(1-(4-cyanobenzyl)piperidin-4-yl)-3-methyl-6-(1-(4-(trifluoromethyl)phenyl)piperidin-4-yloxy)benzofuran-2-carboxamide]
2 | 5000 to 10000 nM | N#Cc1ccc(CN2CCC(NS(=O)(=O)c3ccc(OC4CCN(c5ccc(C(F)(F)F)cc5)CC4)nc3)CC2)cc1 [Compound 1-56, N-(1-(4-cyanobenzyl)piperidin-4-yl)-6-(1-(4-(trifluoromethyl)phenyl)piperidin-4-yloxy)pyridine-3-sulfonamide]
3 | < 100 nM | N#Cc1ccc(CN2CCC(NC(=O)c3cc4cc(OC5CCN(C(=O)c6ccc(-n7cccn7)cc6)CC5)ccc4o3)CC2)cc1 [Compound 1-163, 5-(1-(4-(1H-pyrazol-1-yl)benzoyl)piperidin-4-yloxy)-N-(1-(4-cyanobenzyl)piperidin-4-yl)benzofuran-2-carboxamide]
4 | 100 to 500 nM | O=C(NC1CCNCC1)c1cc2ccc(OC3CCN(c4ccc(OC(F)(F)F)cc4)CC3)cc2o1 [Compound 1-83, N-(piperidin-4-yl)-6-(1-(4-(trifluoromethoxy)phenyl)piperidin-4-yloxy)benzofuran-2-carboxamide]
5 | 1000 to 5000 nM | O=C(NC1CCNCC1)c1ccnc(OC2CCN(c3ccc(C(F)(F)F)cc3)CC2)c1 [Compound 1-19, N-(piperidin-4-yl)-2-(1-(4-(trifluoromethyl)phenyl)piperidin-4-yloxy) isonicotinamide]
6 | < 100 nM | CS(=O)(=O)c1ccc(CN2CC[C@@H](Oc3ccc4oc(C(=O)NC5CCN(Cc6ccc(C#N)cc6)CC5)cc4c3)[C@H](F)C2)cc1 [Compound 1-167, N-(1-(4-cyanobenzyl)piperidin-4-yl)-5-((3,4-trans)-3-fluoro-1-(4-(methylsulfonyl)benzyl)piperidin-4-yloxy)benzofuran-2-carboxamide]

Same assay, conditions: Table 10, compounds of Table 3

Row | EC50 | Structure (SMILES)
7 | < 100 nM | O=C(NC1CCN(Cc2ccncc2)CC1)c1cnc(OC2CCN(c3ccc(C(F)(F)F)cc3)CC2)cn1 [Compound 3-21, N-(1-(pyridin-4-ylmethyl)piperidin-4-yl)-5-(1-(4-(trifluoromethyl)phenyl)piperidin-4-yloxy)pyrazine-2-carboxamide]
8 | < 100 nM | N#Cc1ccc(CN2CCC(NC(=O)c3nc4ccc(OC5CCN(c6ccc(C(F)(F)F)cc6)CC5)cc4o3)CC2)cc1 [Compound 3-2, N-(1-(4-cyanobenzyl)piperidin-4-yl)-6-(1-(4-(trifluoromethyl)phenyl)piperidin-4-yloxy)benzo[d]oxazole-2-carboxamide]
9 | < 100 nM | O=C(NC1CCN(C(=O)c2ccc(F)cc2)CC1)c1nc2ccc(OC3CCN(c4ccc(C(F)(F)F)cc4)CC3)cc2o1 [Compound 3-4, N-(1-(4-fluorobenzoyl)piperidin-4-yl)-6-(1-(4-(trifluoromethyl)phenyl)piperidin-4-yloxy)benzo[d]oxazole-2-carboxamide]

Same assay, conditions: Table 11, compounds of Table 4

Row | EC50 | Structure (SMILES)
10 | < 500 nM | N#Cc1ccc(CN2CCC(NC(=O)c3ccc(C(=O)N4CCN(Cc5ccc(S(=O)(=O)N6CCCC6)cc5)CC4)nc3)CC2)cc1 [Compound 4-16, N-(1-(4-cyanobenzyl)piperidin-4-yl)-6-(4-(4-(pyrrolidin-1-ylsulfonyl)benzyl)piperazine-1-carbonyl)nicotinamide]

Same assay, conditions: Table 12, compounds of Table 5

Row | EC50 | Structure (SMILES)
11 | < 1000 nM | O=C(NC1CCN(Cc2ccccc2)CC1)c1cc(Cl)c(OC2CCN(Cc3cccc(C(F)(F)F)c3)CC2)c(Cl)c1 [Compound 5-62, N-(1-benzylpiperidin-4-yl)-3,5-dichloro-4-(1-(3-(trifluoromethyl)benzyl)piperidin-4-yloxy)benzamide]
12 | < 1000 nM | N#Cc1ccc(CN2CCC(NC(=O)c3cccc(OC4CCN(Cc5ccc(Oc6ccccc6)cc5)CC4)c3)CC2)cc1 [Compound 5-117, N-(1-(4-cyanobenzyl)piperidin-4-yl)-3-(1-(4-phenoxybenzyl)piperidin-4-yloxy)benzamide]
13 | < 1000 nM | O=C(NC1CCN(Cc2cccnc2)CC1)c1ccc(OC2CCN(c3ccc(C(F)(F)F)cc3)CC2)c(F)c1 [Compound 5-29, 3-fluoro-N-(1-(pyridin-3-ylmethyl)piperidin-4-yl)-4-(1-(4-(trifluoromethyl)phenyl)piperidin-4-yloxy)benzamide]

Same assay, conditions: Table 13, compounds of Table 6

Row | EC50 | Structure (SMILES)
14 | < 100 nM | COc1ccc(CN2CCC(NC(=O)c3cc4cc(C(=O)N5CCN(Cc6ccc(S(C)(=O)=O)c(Cl)c6)CC5)ccc4o3)CC2)cc1F [Compound 6-133, 5-(4-(3-chloro-4-(methylsulfonyl)benzyl)piperazine-1-carbonyl)-N-(1-(3-fluoro-4-methoxybenzyl)piperidin-4-yl)benzofuran-2-carboxamide]
15 | < 100 nM | COc1ccc(CN2CCC(NC(=O)c3cc4cc(C(=O)N5CCN(Cc6ccc(S(=O)(=O)N(C)C)cc6)CC5)ccc4o3)CC2)cc1F [Compound 6-162]
16 | 1000 to 10000 nM | N#Cc1ccc(CN2CCC(NC(=O)c3cc4cc(NC(=O)c5ccc(-c6nnc[nH]6)cc5)ccc4o3)CC2)cc1 [Compound 6-60, 5-(4-(4H-1,2,4-triazol-3-yl)benzamido)-N-(1-(4-cyanobenzyl)piperidin-4-yl)benzofuran-2-carboxamide]
17 | < 100 nM | CS(=O)(=O)c1ccc(CN2CCN(C(=O)c3ccc4oc(C(=O)NC5CCN(Cc6ccc(OC(F)(F)C(F)F)cc6)CC5)cc4c3)CC2)cc1 [Compound 6-156, 5-(4-(4-(methylsulfonyl)benzyl)piperazine-1-carbonyl)-N-(1-(4-(1,1,2,2-tetrafluoroethoxy)benzyl)piperidin-4-yl)benzofuran-2-carboxamide]
18 | < 100 nM | CCNS(=O)(=O)c1ccc(CN2CCN(C(=O)c3ccc4oc(C(=O)NC5CCN(Cc6ccc(OC)c(F)c6)CC5)cc4c3)CC2)cc1 [Compound 6-161, 5-(4-(4-(N-ethylsulfamoyl)benzyl)piperazine-1-carbonyl)-N-(1-(3-fluoro-4-methoxybenzyl)piperidin-4-yl)benzofuran-2-carboxamide]
19 | < 100 nM | CS(=O)(=O)c1ccc(CN2CCN(C(=O)c3ccc4oc(C(=O)NC5CCN(Cc6ccc(C#N)cc6)CC5)cc4c3)CC2)cc1Cl [Compound 6-112, 5-(4-(3-chloro-4-(methylsulfonyl)benzyl)piperazine-1-carbonyl)-N-(1-(4-cyanobenzyl)piperidin-4-yl)benzofuran-2-carboxamide]
20 | < 100 nM | COc1ccc(-c2cnn(C3CCN(C(=O)c4ccc5oc(C(=O)NC6CCN(Cc7ccc(C#N)cc7)CC6)cc5c4)CC3)c2)cc1 [Compound 6-125, N-(1-(4-cyanobenzyl)piperidin-4-yl)-5-(4-(4-(4-methoxyphenyl)-1H-pyrazol-1-yl)piperidine-1-carbonyl)benzofuran-2-carboxamide]
21 | < 100 nM | COc1ccc(CN2CCC(NC(=O)c3cc4cc(C(=O)N5CCN(Cc6cccc(S(C)(=O)=O)c6)CC5)ccc4n3C)CC2)cc1F [Compound 6-142, N-(1-(3-fluoro-4-methoxybenzyl)piperidin-4-yl)-1-methyl-5-(4-(3-(methylsulfonyl)benzyl)piperazine-1-carbonyl)-1H-indole-2-carboxamide]

Same assay, conditions: Table 14, compounds of Table 7

Row | EC50 | Structure (SMILES)
22 | < 1000 nM | COc1ccc(C(=O)C2CCN(C(=O)c3ccc(C(=O)NC4CCN(Cc5cccc(OC)c5)C[C@H]4F)cn3)CC2)cc1 (stereo partly drawn) [Compound 7-30, N-((3,4-trans)-3-fluoro-1-(3-methoxybenzyl)piperidin-4-yl)-6-(4-(4-methoxybenzoyl)piperidine-1-carbonyl)nicotinamide]
23 | < 1000 nM | COc1ccc(C(=O)C2CCN(C(=O)c3ccc(C(=O)NC4CCN(Cc5ccc(C(F)(F)F)cc5)C[C@@H]4F)cn3)CC2)cc1 (stereo partly drawn) [Compound 7-28, N-((3,4-trans)-3-fluoro-1-(4-(trifluoromethyl)benzyl)piperidin-4-yl)-6-(4-(4-methoxybenzoyl)piperidine-1-carbonyl)nicotinamide]
24 | < 1000 nM | COc1ccc(C(=O)C2CCN(C(=O)c3ccc(C(=O)NC4CCN(Cc5ccc(OC)c(F)c5)C[C@H]4F)cn3)CC2)cc1 (stereo partly drawn) [Compound 7-44, N-((3,4-trans)-3-fluoro-1-(3-fluoro-4-methoxybenzyl)piperidin-4-yl)-6-(4-(4-methoxybenzoyl)piperidine-1-carbonyl)nicotinamide]
25 | 1000 to 10000 nM | Cc1cc(OC2CCN(C(=O)c3ccc(C(=O)NC4CCN(Cc5ccc(C#N)cc5)CC4)cn3)CC2)ccc1S(C)(=O)=O [Compound 7-13, N-(1-(4-cyanobenzyl)piperidin-4-yl)-6-(4-(3-methyl-4-(methylsulfonyl)phenoxy)piperidine-1-carbonyl) nicotinamide]
26 | < 1000 nM | COc1ccc(C(=O)C2CCN(C(=O)c3ccc(C(=O)NC4CCN(Cc5cccc(C(F)(F)F)c5)C[C@H]4F)cn3)CC2)cc1 (stereo partly drawn) [Compound 7-32, N-((3,4-trans)-3-fluoro-1-(3-(trifluoromethyl)benzyl)piperidin-4-yl)-6-(4-(4-methoxybenzoyl)piperidine-1-carbonyl)nicotinamide]
27 | 1000 to 10000 nM | Cc1cc(OC2CCN(C(=O)c3ccc(C(=O)NC4CCN(Cc5ccc(OC(F)(F)C(F)F)cc5)CC4)cn3)CC2)ccc1S(C)(=O)=O [Compound 7-64, 6-(4-(3-methyl-4-(methylsulfonyl)phenoxy)piperidine-1-carbonyl)-N-(1-(4-(1,1,2,2-tetrafluoroethoxy)benzyl)piperidin-4-yl)nicotinamide]
28 | < 1000 nM | COc1ccc(C(=O)C2CCN(C(=O)c3ccc(C(=O)NC4CCN(Cc5ccc(C#N)c(OC)c5)C[C@@H]4C)cn3)CC2)cc1 (stereo partly drawn) [Compound 7-99, N-((3,4-cis)-1-(4-cyano-3-methoxybenzyl)-3-methylpiperidin-4-yl)-6-(4-(4-methoxybenzoyl)piperidine-1-carbonyl)nicotinamide]
29 | < 1000 nM | COc1ccc(C(=O)C2CCN(C(=O)c3ccc(C(=O)NC4CCN(Cc5cccc(C#N)c5)C[C@H]4F)cn3)CC2)cc1 (stereo partly drawn) [Compound 7-29, N-((3,4-trans)-1-(3-cyanobenzyl)-3-fluoropiperidin-4-yl)-6-(4-(4-methoxybenzoyl)piperidine-1-carbonyl)nicotinamide]
30 | < 1000 nM | COc1ccc(CN2CCC(NC(=O)c3ccc(C(=O)N4CCC(Oc5ccc(C(=O)C6CC6)cc5)CC4)nc3)CC2)cc1 [Compound 7-120, 6-(4-(4-(cyclopropanecarbonyl)phenoxy)piperidine-1-carbonyl)-N-(1-(4-methoxybenzyl)piperidin-4-yl)nicotinamide]
